Each structure is given as a SMILES string.

What is called IC50 is the midpoint of a concentration-inhibition curve. The low end stands for greater potency, the high end for weaker potency.

For one assay, the target named is JAK2 (Homo sapiens, UniProt O60674). Nature of the assay: ADP-Glo kinase inhibition assay, JAK2. A general note: ADP-Glo turns the ADP formed in a reaction into a luminescent signal.
The target of another assay is T1, TYK2 (Homo sapiens, UniProt P29597).
T1 sequence (P29597 897-1187 limits assumed): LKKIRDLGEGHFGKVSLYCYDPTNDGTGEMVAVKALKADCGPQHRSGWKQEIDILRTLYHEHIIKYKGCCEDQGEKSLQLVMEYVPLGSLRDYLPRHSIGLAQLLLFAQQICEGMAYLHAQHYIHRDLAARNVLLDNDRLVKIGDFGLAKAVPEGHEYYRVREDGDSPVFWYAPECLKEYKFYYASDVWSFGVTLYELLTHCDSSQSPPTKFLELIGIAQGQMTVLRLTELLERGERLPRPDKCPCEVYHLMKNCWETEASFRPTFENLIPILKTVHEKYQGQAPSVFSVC
Kind of assay: ADP-Glo kinase inhibition assay, TYK2.

For the next assay, the target named is JAK3 (Homo sapiens, UniProt P52333). Nature of the assay: ADP-Glo kinase inhibition assay, JAK3.
The next assay addresses JAK1 (Homo sapiens, UniProt P23458). Kind of assay: ADP-Glo kinase inhibition assay, JAK1.
Assay [1] relates to itching caused by allergic dermatitis. Conditions: dogs, cited from earlier work.

JAK3, sequence (P52333 795-1124 limits assumed): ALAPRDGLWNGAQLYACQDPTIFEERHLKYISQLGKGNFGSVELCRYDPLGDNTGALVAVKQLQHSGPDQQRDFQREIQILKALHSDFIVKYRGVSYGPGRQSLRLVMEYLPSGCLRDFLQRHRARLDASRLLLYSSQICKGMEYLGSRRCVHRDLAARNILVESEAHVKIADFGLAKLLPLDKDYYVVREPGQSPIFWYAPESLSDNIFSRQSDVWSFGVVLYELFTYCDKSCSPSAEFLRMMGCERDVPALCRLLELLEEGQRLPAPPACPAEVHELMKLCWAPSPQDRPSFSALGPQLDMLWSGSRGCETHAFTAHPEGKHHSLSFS
JAK1, sequence (P23458 850-1154 limits assumed): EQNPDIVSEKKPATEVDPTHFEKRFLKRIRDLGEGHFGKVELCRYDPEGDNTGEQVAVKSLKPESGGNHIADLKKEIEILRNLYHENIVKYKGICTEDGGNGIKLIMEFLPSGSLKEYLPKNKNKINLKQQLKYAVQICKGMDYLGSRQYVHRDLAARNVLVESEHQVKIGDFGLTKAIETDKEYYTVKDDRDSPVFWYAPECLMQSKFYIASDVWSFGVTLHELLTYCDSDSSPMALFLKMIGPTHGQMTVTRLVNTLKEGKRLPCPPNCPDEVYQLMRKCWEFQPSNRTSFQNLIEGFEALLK
JAK2, sequence (O60674 826-1132 limits assumed): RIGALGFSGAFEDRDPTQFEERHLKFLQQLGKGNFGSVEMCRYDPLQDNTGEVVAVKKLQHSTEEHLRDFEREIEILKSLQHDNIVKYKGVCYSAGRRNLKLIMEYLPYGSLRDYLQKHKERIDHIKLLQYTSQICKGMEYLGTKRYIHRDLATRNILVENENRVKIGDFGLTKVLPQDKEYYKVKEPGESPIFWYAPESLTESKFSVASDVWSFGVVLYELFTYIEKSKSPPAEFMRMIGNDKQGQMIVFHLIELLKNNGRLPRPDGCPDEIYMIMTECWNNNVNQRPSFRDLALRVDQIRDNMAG
From the text for JAK1: (§1) A drug screening system based on kinases JAK1, JAK2, JAK3, and TYK2 was used to detect the inhibitory ability of small molecule compounds on kinase activity. A kinase undergoes an enzymatic reaction with its substrates IRS1, IGF1Rtide, and Poly (4:1 Glu, Tyr), consuming ATP to produce ADP, wherein the ADP-Glo reagent and luminescence method were used to detect the amount of the product to reflect the activity of the kinase.
(§2) For TYK2 inhibition activity testing, the starting concentration was 10 μM with 1:4 serial dilution. Test compounds were used at a starting concentration of 0.5 μM with 1:4 serial dilution.
(§3) Transfer 4 μL of ADP-Glo reagent to the 384-well plate, which was centrifuged at 1000 rpm for 1 minute, and incubated at 25° C. for 40 minutes.
(§4) Transfer 8 μL of the test solution to the 384-well plate, which was centrifuged at 1000 rpm for 1 minute, and incubated at 25° C. for 40 minutes.
(§5) Read luminescence signals using a multimode microplate reader.
(§6) [formula] • Negative Control: DMSO • Positive Control: Tofacitinib
(§7) The following nonlinear regression equation was used to determine the compound's IC50(half-maximal inhibitory concentration). Data analysis was performed using GraphPad Prism 7.0 software.
(§8) [formula] • X: Logarithm of compound concentration; and Y: Inhibition rate (% Inhibition)
From the text for JAK2: as §1, §2, §3, §4, §5, §6, §7, §8
From the text for JAK3: as §1, §2, §3, §4, §5, §6, §7, §8
From the text for TYK2: as §1, §2, §3, §4, §5, §6, §7, §8

In the case of `[2H]C([2H])([2H])c1cc(O)c(F)cc1-c1ccc2c(-c3nc4c([nH]3)CN(C(=O)N3CC[C@@H](O)C3)C4)n[nH]c2c1` [Compound 8, (R)-(2-(6-(5-Fluoro-4-hydroxy-2-(methyl-d3)phenyl)-1H-indazol-3-yl)-4,6-dihydropyrrolo[3,4-d]imidazole-5(1H)-yl)(3-hydroxypyrrolidin-1-yl)ketone], the IC50 was determined as 0.004 nM on JAK2, 0.19 nM on TYK2, 0.16 nM at JAK3 and 0.045 nM on JAK1.

As for `[2H]C([2H])([2H])C([2H])([2H])c1cc(O)c(F)cc1-c1ccc2c(-c3nc4c([nH]3)CN(C(=O)N3CC[C@H](O)C3)C4)n[nH]c2c1` [Compound 3, (S)-(2-(6-(2-(Ethyl-d5)-5-fluoro-4-hydroxyphenyl)-1H-indazol-3-yl)-4,6-dihydropyrrolo[3,4-d]imidazol-5(1H)-yl) (3-hydroxypyrrolidin-1-yl) ketone methanesulfonate], the IC50 was determined as 0.015 nM at JAK2, 0.022 nM against TYK2, 0.044 nM at JAK3 and 0.0072 nM against JAK1.

Turning to `[2H]C([2H])([2H])c1cc(O)c(F)cc1-c1ccc2c(-c3nc4c([nH]3)CN(C)C4)n[nH]c2c1` [Compound 12, 2-Fluoro-5-(methyl-d3)-4-(3-(5-methyl-1,4,5,6-tetrahydropyrrolo[3,4-d]imidazol-2-yl)-1H-indazol-6-yl)phenol], at JAK1, it took 1.8 nM to reach half-maximal inhibition (IC50).

In the case of `[2H]C([2H])([2H])c1cc(O)c(F)cc1-c1ccc2c(-c3nc4c([nH]3)CN(C(=O)N3CC[C@H](O)C3)C4)n[nH]c2c1` [Compound 6, (S)-(2-(6-(5-Fluoro-4-hydroxy-2-(methyl-d3)phenyl)-1H-indazol-3-yl)-4,6-dihydropyrrolo[3,4-d]imidazole-5(1H)-yl)(3-hydroxypyrrolidin-1-yl)ketone], the IC50 on JAK2 was 0.013 nM; against TYK2 it was 0.32 nM; on JAK3 it was 0.19 nM; against JAK1, 0.086 nM.

As for `[2H]C([2H])([2H])c1cc(O)c(F)cc1-c1ccc2c(-c3nc4c([nH]3)CN(C(=O)NC[C@@H](C)O)C4)n[nH]c2c1` [Compound 1, (R)-2-(6-(5-Fluoro-4-hydroxy-2-(methyl-d3)phenyl)-1H-indazol-3-yl)-N-(2-hydroxypropyl)-4,6-dihydropyrrolo[3,4-d]imidazole-5(1H)-carboxamide], the IC50 against JAK2 came out at 0.013 nM; on TYK2, 0.8 nM; on JAK3, 0.2 nM; at JAK1 it was 0.096 nM.

In the case of `CNS(=O)(=O)C[C@H]1CC[C@H](N(C)c2ncnc3[nH]ccc23)CC1` [Olatinib], the “experimental animals that alleviated the itching response by more than 50%” value in assay [1] (on the 7th day) is on record as “more than 70%”. In addition, the “time to relieve itching” value in assay [1] (oral 0.4-0.6 mg/kg twice a day) was no more than 24 h.

On to `[2H]C([2H])([2H])c1cc(O)c(F)cc1-c1ccc2c(-c3nc4c([nH]3)CN(C(=O)OC)C4)n[nH]c2c1` [Compound 18], for which the IC50 against JAK2 is 0.61 nM.

Regarding `[2H]C([2H])([2H])c1cc(O)c(F)cc1-c1ccc2c(-c3nc4c([nH]3)CN(C(=O)N(C)C)C4)n[nH]c2c1` [Compound 9, 2-(6-(5-Fluoro-4-hydroxy-2-(methyl-d3)phenyl)-1H-indazol-3-yl)-N,N-dimethyl-4,6-dihydropyrrolo[3,4-d]imidazole-5(1H)-carboxamide], the IC50 against JAK2 stood at 0.008 nM; against TYK2 it was 0.43 nM; on JAK3, 0.32 nM; on JAK1, 0.071 nM.

In the case of `[2H]C([2H])([2H])C([2H])([2H])c1cc(O)c(F)cc1-c1ccc2c(-c3nc4c([nH]3)CN(C(=O)N(C)C)C4)n[nH]c2c1` [Compound 32], the IC50 against JAK2 came to 0.032 nM; against TYK2 it was 0.3 nM; against JAK3, 0.2 nM; on JAK1, 0.025 nM.

On to `[2H]C([2H])([2H])c1cc(O)c(F)cc1-c1ccc2c(-c3nc4c([nH]3)CN(CC(C)O)C4)n[nH]c2c1` (stereo in doubt) [Compound 28], for which the IC50 against JAK2 came out at 0.05 nM; on TYK2, 6.4 nM; against JAK3, 1 nM; against JAK1, 0.43 nM.

Regarding `[2H]C([2H])([2H])c1cc(O)c(F)cc1-c1ccc2c(-c3nc4c([nH]3)CN(C(=O)N3CCOCC3)C4)n[nH]c2c1` [Compound 10], the IC50 against JAK2 came out at 0.0097 nM; against TYK2, 0.37 nM; against JAK3, 0.3 nM; on JAK1, 0.092 nM.

`[2H]C([2H])([2H])c1cc(O)c(F)cc1-c1ccc2c(-c3nc4c([nH]3)CN(C(=O)NCC(C)O)C4)n[nH]c2c1` (stereo not shown) [Compound 5, 2-(6-(5-Fluoro-4-hydroxy-2-(methyl-d3)phenyl)-1H-indazol-3-yl)-N-(2-hydroxypropyl)-4,6-dihydro-pyrrolo[3,4-d]imidazole-5(1H)-carboxamide]: the half-inhibitory concentration (IC50) turned out to be 0.01 nM on JAK2, 1.6 nM against TYK2, 0.3 nM at JAK3 and 0.2 nM at JAK1.

As for `[2H]C([2H])([2H])c1cc(O)c(F)cc1-c1ccc2c(-c3nc4c([nH]3)CN(C(=O)NC[C@H](C)O)C4)n[nH]c2c1` [Compound 4, (S)-2-(6-(5-Fluoro-4-hydroxy-2-(methyl-d3)phenyl)-1H-indazol-3-yl)-N-(2-hydroxypropyl)-4,6-dihydropyrrolo[3,4-d]imidazole-5(1H)-carboxamide], the IC50 was 0.015 nM at JAK2, 1 nM against TYK2, 0.26 nM at JAK3 and 0.1 nM at JAK1.

Regarding `[2H]C([2H])([2H])c1cc(O)c(F)cc1-c1ccc2c(-c3nc4c([nH]3)CN(C(=O)NC)C4)n[nH]c2c1` [Compound 13], the half-inhibitory concentration (IC50) at JAK2 worked out at 0.012 nM; against TYK2, 0.43 nM; against JAK3, 0.22 nM; at JAK1, 0.077 nM.

Take `[2H]C([2H])([2H])c1cc(O)c(F)cc1-c1ccc2c(-c3nc4c([nH]3)CN(C(=O)C3CC3)C4)n[nH]c2c1` [Compound 2, Cyclopropyl (2-(6-(5-fluoro-4-hydroxy-2-(methyl-d3)phenyl)-1H-indazol-3-yl)-4,6-dihydropyrrolo[3,4-d]imidazol-5(1H)-yl) ketone]: the IC50 on JAK2 worked out at 0.017 nM; at TYK2, 1.2 nM; against JAK3, 0.28 nM; at JAK1, 0.19 nM.

Consider `[2H]C([2H])([2H])C([2H])([2H])c1cc(O)c(F)cc1-c1ccc2c(-c3nc4c([nH]3)CN(C(=O)N3CC[C@@H](O)C3)C4)n[nH]c2c1` [Compound 35], for which the IC50 against JAK2 was 0.0088 nM; against TYK2 it was 0.085 nM; on JAK3, 0.095 nM; against JAK1 it was 0.0075 nM.

In the case of `[2H]C([2H])([2H])c1cc(O)c(F)cc1-c1ccc2c(-c3nc4c([nH]3)CN(C(=O)NCCCO)C4)n[nH]c2c1` [Compound 7, 2-(6-(5-Fluoro-4-hydroxy-2-(methyl-d3)phenyl)-1H-indazol-3-yl)-N-(3-hydroxypropyl)-4,6-dihydropyrrolo[3,4-d]imidazole-5(1H)-carboxamide], the IC50 at JAK2 was determined as 0.014 nM; on TYK2 it was 0.53 nM; against JAK3 it was 0.25 nM; against JAK1, 0.07 nM.

In the case of `[2H]C([2H])([2H])c1cc(O)c(F)cc1-c1ccc2c(-c3nc4c([nH]3)CN(C(=O)N3CCC(O)CC3)C4)n[nH]c2c1` [Compound 19], the IC50 against JAK2 came out at 0.005 nM; against TYK2 it was 0.3 nM; against JAK3 it was 0.18 nM; on JAK1 it was 0.032 nM.
